Reference: US20050215498A1, “Method for the protection of endothelial and epithclial cells during chemotherapy” (priority 2002, published 2005)
Read-outs that look alike come from different tables or passages of the source.

Experiments:
[1] = manufacturers's instructions, cited from earlier work
[2] = tested on: human microvascular endothelial cells (HMEC); assay type: cell-based
Method: All cell culture reagents have been purchased by Gibco BRL (Karlsruhe, Germany) unless stated otherwise. 2-Fluoroadenine 9-beta-D-arabinofuranoside (F-Ara) was obtained from Sigma, Deisenhofen, Germany, Defibrotide vials were obtained from Prociclide™, Crinos, Como, Italy.
(§1) An established method for detecting apoptosis in human endothelial cells was performed as previously described^20 using flow cytometry (FACScan™ and CellQuest™ software, Becton Dickinson, Heidelberg, Germany). Endothelial and epithelial cells were either left untreated or incubated with F-Ara in descending concentrations (range: 10 μg/mL to 0.1 μg/mL) in the presence or absence of Defibrotide for 48 hours. Afterwards, cells were washed in PBS/10% FCS and stained with the necrosis detecting dye propidium iodide (PI, 0.2 μg/mL, Sigma, Deisenhofen, Germany). Apoptotic cells were identified by a PI-negative staining and by a characteristic side scatter image distinct from that of non-apoptotic cells. At least three experiments per cell type have been performed.
(§2) An alternative method for the detection of apoptosis used microscopic analysis of DNA fluorescence labeled cells. 1×10 ^5/plate endothelial cells were seeded in 35 mm petri dishes (Nunc, Wiesbaden, Germany). These cells were treated as given above and subsequently fixed with Methanol/Acetone (1:1) for 2 minutes, washed once in PBS and stained with 4,6-Diamidino-2-phenylindole (DAPI) (0.5 μg/mL, Sigma, Deisenhofen, Germany), dissolved in 20% Glycerin/PBS. Samples were mounted and subjected to microscopic analysis.
In order to assess the influence of F-Ara on the viability of cultured human endothelial cells, HMEC were incubated with descending pharmacologically relevant concentrations (10 μg/mL to 0.1 μg/mL) of 2-Fluoroadenine 9-beta-D-arabinofuranoside as the metabolized form of fludarabine. […] After 48 hours of incubation HMEC were subjected to apoptosis assays using the detection of cellular granularity of propidium iodide negative cells (side scatter (SSC) image in flow cytometry) and microscopic analyses of DAPI-stained cells, respectively.
In order to exclude unspecific artifical extracellular interaction of F-Ara and Defibrotide in vitro HMEC were pretreated with Defibrotide for 1 hour and subsequently, after 3 washing steps, incubated with F-Ara for another 48 hours and vice versa.

[3] = tested on: HaCaT human keratinocyte cell line; experiment: Flow cytometric apoptosis analysis in HaCaT; assay type: cell-based; conditions: Defibrotide alone, data not shown
Method: as §1
as §2, with “Samples were mounted and subjected to microscopic analysis.” left out
(§3) Skin, the gastrointestinal tract (GIT) and most likely the lung are among the primary targets of GvHD. […] Again, the protective potential of Defibrotide (100 μg/mL) was assessed.

[4] = tested on: A549 alveolar epithelial cells; experiment: Flow cytometric apoptosis analysis in A549; assay type: cell-based, human; conditions: Defibrotide alone, data not shown
Method: as §1
as §2, with “Samples were mounted and subjected to microscopic analysis.” left out
as §3

[5] = tested on: primary acute myeloid leukemia (AML) cells; experiment: Propidium iodide staining (vitality) of primary AML cells; assay type: cell-based, human; conditions: 48 hours
Method: (§4) F-Ara: 10 μg/mL. D: 100 μg/mL. A: Propidium iodide staining of primary acute myeloid leukemia (AML) cells derived from a patient in blast crisis (70% blasts of total PBMC count). Results are given in mean % vitality of three independent experiments. *: p=0.008 of Control- versus F-Ara-treated AML cells. B: Flow cytometric analysis of the SSC-image of PI-negative PBMC. Shown is one representative out of five independent experiments with different blood donors.
Next to its desirable protective capacity for endothelial and epithelial cells against F-Ara induced apoptosis it was important to investigate whether Defibrotide would also interfere with the anti-leukaemic properties of F-Ara. To address this question, primary peripheral blood derived acute myeloid leukaemic (AML) cells with a blast amount of 70% were thawed, kept in culture for 24 hours and subsequently treated with F-Ara in the presence or absence of Defibrotide for another 48 hours. […] However, F-Ara induced cell death in up to 80% of the cells. […] This could be observed after as early as 24 hours of incubation. […] We next asked whether Defibrotide might modulate the effect of F-Ara against normal haematopoetic cells and performed apoptosis assays (SSC-image) with PBMC from normal human blood donors. […]

[6] = tested on: PBMC from normal human blood donors; experiment: Apoptosis assay (SSC-image) with PBMC; assay type: cell-based
Method: as §4
as §1, with “performed. […]” for “performed.”

[7] = tested on: ICAM-1 expression on HMEC; experiment: Flow cytometric analysis of ICAM-1 expression on HMEC; assay type: cell-based, human
Method: (§5) Cell surface expression of ICAM-1 (Becton Dickinson/Pharmingen, Heidelberg, Germany) and MHC class I (w6/32, hybridoma supernatant, ATCC, Manassas, Va., USA) molecules on HMEC was assessed by the indirect immunofluorescence technique and subsequent flow cytometry using the FACScan™ flow cytometer and the Cell-Quest™ analysis program (Becton Dickinson, Heidelberg, Germany). Endothelial cells were treated as given and after incubation harvested with trypsin/EDTA (Gibco), washed once in cold PBS/10% FCS and incubated 1 hour on ice with 5 μg/mL of anti-adhesion molecule MoAbs. Cells were washed again and incubated with a goat anti-mouse IgG-FITC conjugated antibody F(ab)2 fragment (Dako, Hamburg, Germany) for 45 minutes on ice. Cells were then washed in PBS/10% FCS and subjected to analysis. Viability of the cells was determined by concurrent propidium iodide (0.2 μg/mL, Sigma, Deisenhofen, Germany) staining. Omitting of the first antibody served as a negative control to detect unspecific fluorescence.
Based on previous observations that pretransplant conditioning not only damages, but also leads to proinflammatory activation of endothelial cells in terms of adhesion molecule induction,^15 we next investigated the expression of ICAM-1 under the influence of F-Ara. […] We next asked whether Defibrotide would also be functional as an antagonist of F-Ara in this experimental setting. HMEC were treated with F-Ara as given and incubated in the presence or absence of descending concentrations of Defibrotide.

[8] = tested on: MHC class I molecules on HMEC; experiment: Flow cytometric analysis of MHC class I on HMEC; assay type: cell-based, human; conditions: for induction of mean fluorescence intensity of MHC class I: 24 hours
Method: as §5
(§6) Since a proinflammatory activation of target cells is often associated with increased expression of major histocompatibility antigens (MHC) class I and II, we did further flow cytometric analyses for these antigens after incubation with F-Ara in various concentrations for 24 hours.

[9] = tested on: HMEC as target cells for allogeneic CTL; experiment: 51Cr release assay, lysis of HMEC by allogeneic PBMC / CD8+ CTL; assay type: cell-based, human
Text: Peripheral blood mononuclear cells (PBMC) were derived from heparinized (Novo Nordisk, Mainz, Germany) blood of healthy human volunteers or buffy coats from the Bavarian Red Cross according to a standard protocol using Ficoll hypaque (Pharmacia, Freiburg, Germany) density gradient centrifugation. Cells were then stimulated in a ratio of 1:1 and 2:1 with irradiated (20 Gy) HMEC for 7 days in the presence of Interleukin 2 (50 U/mL) and 10% human AB serum (Sigma, Deisenhofen, Germany). Alternatively, PBMC were selected for CD8+ T cells and natural killer (NK) cells using cell isolation kits according to the manufactuer's instructions (MACS™, Miltenyi Bio-tech, Bergisch-Gladbach, Germany) based on the deletion of non CD8+ and non NK cells, respectively. Stimulation of the selected cells was identical to that of whole PBMC cultures, except for NK cells which were stimulated for only 3 days.
T cell- or NK-cell mediated cytotoxicity was assessed according to a well established protocol,^23 using a 4h ^51Cr radioisotope assay. HMEC that had either been left untreated or incubated with F-Ara (10μg/mL) overnight were used as target cells, to be labeled 0.4 mCi Na2^51CrO4 for 2 hours. After 3 washing steps, target cells were adjusted to 10^4 cells/mL and coincubated with PBMC, CD8+ or NK effector cells at descending effector to target ratios for another 4 hours. Supernatants were transfered to dry scintillation plates and counted in a γ-counter (all from Canberra Packard, Darmstadt, Germany). Autologous (effector) B-Lymphoblastoid cell lines (B-LCL) and K562 as NK sensitive cells were taken as additional control targets. The percentage of specific lysis was calculated as: [(experimental release−spontaneous release)/(maximal release−spontaneous release)]×100. Spontaneous release in all experiments was always below 20%. […]

endothelial cells = experiment: Radiation induced endothelial cell death; assay type: cell-based; conditions: data not shown
Text: Since in many pre-transplant protocols fludarabine is used in combination with ionizing radiation it was important to test whether these two compounds would cooperate in affecting endothelial cells.

[10] = tested on: SW 480 gut epithelial cell line; experiment: Flow cytometric apoptosis analysis in SW 480; assay type: cell-based; conditions: F-Ara 10 μg/mL, 48 hours
Method: as §1
(§7) Skin, the gastrointestinal tract (GIT) and most likely the lung are among the primary targets of GvHD. Therefore, it was reasonable to test the influence of F-Ara on cell lines derived from these organs. Cells from keratinocyte (HaCaT), GIT (SW 480), alveolar (A549) and bronchial epithelial (BEAS-2B) cell lines as well as primary bronchial epithelial cells were incubated with F-Ara (10 μg/mL) as given for FIGS. 1 and 2 and assayed in flow cytometric apoptosis analyses 48 hours post treatment. […] Again, the protective potential of Defibrotide (100 μg/mL) was assessed.

[11] = tested on: BEAS-2B bronchial epithelial cell line and primary bronchial epithelial cells; experiment: Flow cytometric apoptosis analysis in bronchial epithelial cells; assay type: cell-based; conditions: F-Ara 10 μg/mL, 48 hours
Method: as §1, §7

MHC class II on HMEC = conditions: F-Ara various concentrations, 24 hours, data not shown
Method: as §5, §6

[12] = tested on: HMEC as target cells for allogeneic NK cells; experiment: 51Cr release assay, lysis of HMEC by allogeneic NK cells; assay type: cell-based, human; conditions: F-Ara 10 μg/mL, 24 hours
Method: T cell- or NK-cell mediated cytotoxicity was assessed according to a well established protocol,^23 using a 4h ^51Cr radioisotope assay. HMEC that had either been left untreated or incubated with F-Ara (10μg/mL) overnight were used as target cells, to be labeled 0.4 mCi Na2^51CrO4 for 2 hours. After 3 washing steps, target cells were adjusted to 10^4 cells/mL and coincubated with PBMC, CD8+ or NK effector cells at descending effector to target ratios for another 4 hours. Supernatants were transfered to dry scintillation plates and counted in a γ-counter (all from Canberra Packard, Darmstadt, Germany). […] The percentage of specific lysis was calculated as: [(experimental release−spontaneous release)/(maximal release−spontaneous release)]×100.

## Nc1nc(F)nc2c1ncn2[C@@H]1O[C@H](COP(=O)(O)OP(=O)(O)OP(=O)(O)O)[C@@H](O)[C@@H]1O [fludarabine triphosphate]
[1]; concentration representing 20 μM
  median intracellular level in target cells: 5.8 µg/mL
[1]
  median intracellular level in target cells: 20 µM

## Defibrotide
[2]; Defibrotide 100 to 0.1 μg/mL with F-Ara 10 μg/mL, 48 hours
  protection of F-Ara induced cell death: dose-dependent protection
[2]; Defibrotide alone, 48 hours
  endothelial cell viability: did not influence endothelial cell viability
[2]; pretreatment with Defibrotide 1 hour, washing, then F-Ara 48 hours
  protection from F-Ara induced apoptosis: sufficient to protect cells
[2]; pretreatment with F-Ara 1 hour, subsequent incubation with Defibrotide
  endothelial programmed cell death: did not lead to endothelial programmed cell death
[3]
  number of apoptotic cells: did not influence the number of apoptotic cells
[4]
  number of apoptotic cells: did not influence the number of apoptotic cells
[5]; Defibrotide 100 μg/mL with F-Ara 10 μg/mL
  protection of AML cells from F-Ara mediated toxicity: not able to protect
[6]; F-Ara 10 μg/mL with Defibrotide 100 μg/mL
  % apoptotic cells: 43.1%
[7]; Defibrotide 100 μg/mL and 10 μg/mL with F-Ara 10 μg/mL
  F-Ara induced ICAM-1 expression: antagonized
[7]; Defibrotide alone, every concentration tested, data not shown
  ICAM-1 expression: remained unchanged
[8]; data not shown
  MHC class I molecules, F-Ara versus F-Ara+D treated HMEC: significant downregulation
[9]; pretreatment of target HMEC with F-Ara and Defibrotide (F-Ara+D)
  specific lysis of HMEC by CD8+ CTL: downregulated specific lysis even below control levels
Endothelial cells
  protection against radiation induced endothelial cell damage: not protective

## Nc1nc(F)nc2c1ncn2[C@@H]1O[C@H](CO)[C@@H](O)[C@@H]1O [F-Ara, 2-fluoro-9-β-D-arabinofuranosyladenine]
[2]; F-Ara 1 μg/mL, 48 hours
  apoptosis in HMEC: no longer effective
[2]; F-Ara 10 and 5 μg/mL, 48 hours
  apoptosis in HMEC: causes apoptosis
[2]; after 24h, data not shown
  apoptosis in HMEC: already detectable
[10]
  apoptosis induction: resistant
[11]
  apoptosis induction: resistant
[5]; F-Ara 10 μg/mL, almost 50% died spontaneously
  cell death of AML cells: up to 80%
[6]; F-Ara 10 μg/mL, untreated control 5.1%
  % apoptotic cells: 40.1%
[7]; 24 hours
  concentrations effective in inducing ICAM-1: ≥ 1 µg/mL
[7]; F-Ara, 24 hours of incubation
  ICAM-1 expression on HMEC: significantly enhances expression
[8]; F-Ara 5 μg/mL
  induction of mean fluorescence intensity of MHC class I: 1.3 fold
[8]; F-Ara 10 μg/mL
  induction of mean fluorescence intensity of MHC class I: 1.5 fold
MHC class II on HMEC
  MHC class II expression: remained unchanged
[9]; CD8+ selected effectors
  lysis of F-Ara-treated HMEC by CD8+ CTL versus control HMEC: significantly higher
[9]; F-Ara (1 μg/mL) treated targets, all E/T ratios tested
  antigenicity of HMEC towards allogeneic PBMC: increased the antigenicity
[12]
  allogenicity of HMEC towards NK cells: significantly downregulated
Endothelial cells; combination with ionizing radiation
  enhancement of radiation induced cell death: could not find any enhancement
